# From PubChem BioAssay AID1996
# Conditions: buffer; pH 7.4; 200.0 µM
row,Structure (SMILES),solubility kinetic
1,NC(=O)c1cc([N+](=O)[O-])cc2c1C=Cc1ccccc1O2,4.6 µg/mL
2,N/C(CCS(=O)(=O)c1ccc(Cl)cc1)=N\OC(=O)c1ccccc1C(F)(F)F,57 µg/mL
3,O=C(NCC1COc2ccccc2O1)C1CCN(S(=O)(=O)c2ccccc2)CC1 (stereo not given),40.8 µg/mL
4,Cc1ccc(NC(=O)c2cccnc2)cc1C,> 33.9 µg/mL
5,Cl.Nc1nc(N2CCN(c3ccccn3)CC2)nc2ccccc12,54.8 µg/mL
6,O=C(NCc1cccnc1)C(=O)Nc1nccs1,20.4 µg/mL
7,COc1cc(C(=O)NCc2ccc3[nH]c(C)cc3c2)cc(OC)c1OC,12.5 µg/mL
8,Cc1ccc(C(=O)N/C(=C\c2cccs2)C(=O)N2CCOCC2)cc1C,> 55.6 µg/mL
9,COc1ccc(Cl)cc1NC(=O)Nc1cc(C)on1,0.9 µg/mL
10,CN1CCN(c2ccccc2NC(=O)c2c(F)cccc2F)CC1,> 49.7 µg/mL
11,CSc1cccc(NC(=S)NCCCO)c1,37.3 µg/mL
12,O=C(/C=C/c1ccccc1)Nc1cccnc1,> 33.6 µg/mL
13,CCN1CCN(CC2COc3ccccc3O2)CC1.Cl (stereo not given),> 50.3 µg/mL
14,O=C1Nc2ccccc2O/C1=C\c1c(F)cccc1Cl,0.7 µg/mL
15,CSc1sc(C(=O)N2CCCCC2)c(-c2cccs2)c1C#N,31.6 µg/mL
16,Cc1ccc2c(c1)c1c(n2CC(O)CN2CCCCC2C)CCCC1 (stereo not given),29.8 µg/mL
17,CCC[C@@H]1C[C@@H](C(=O)N[C@@H]([C@H]2O[C@H](SC)[C@H](O)[C@@H](O)[C@@H]2O)[C@@H](C)O)N(C)C1.Cl,> 66.5 µg/mL
18,O=C(O)c1ccc2c(c1)CCCN2,> 26.6 µg/mL
19,CCc1nc(NCCO)c(C#N)c2c1CSC(C)(C)C2,41.2 µg/mL
20,O=C1CNC(=S)N1C1CCCCCC1,23.8 µg/mL
21,Cc1ccc(NS(=O)(=O)c2csc(C(N)=O)c2)cc1C,18.9 µg/mL
22,O=C(c1ccc(N2CCOCC2)c([N+](=O)[O-])c1)N1CCCCC1,> 47.9 µg/mL
23,O=C(COC(=O)c1ccc(S(=O)(=O)N2CCOCC2)cc1)Nc1ccccc1OC(F)F,4.8 µg/mL
24,C[n+]1ccccc1/C=N/O.[I-],> 39.6 µg/mL
25,CC(=O)N/C(=N/c1nc(C)cc(C)n1)Nc1cc(C)cc(C)c1,3.8 µg/mL

row,Structure (SMILES),solubility kinetic
1,O=[N+]([O-])c1ccc(N2CCN(c3ccc(F)cc3)CC2)cc1,0.3 µg/mL
2,CCOc1ccc2[nH]c3c(N4CCc5ccccc5C4)ncnc3c2c1,1.2 µg/mL
3,COc1ccc(Cl)cc1NC(=O)C1CCN(S(C)(=O)=O)CC1,> 52 µg/mL
4,Clc1ccc(OCCCCCN2CCOCC2)cc1,26.6 µg/mL
5,CC1=NOC(=O)/C1=C/c1ccc(O)c(Br)c1,32.4 µg/mL
6,CCOC(=O)c1sc(=S)n(C)c1NC(=O)c1ccc(C(C)(C)C)cc1,3.4 µg/mL
7,COc1cccc(-n2c(/C=C/c3ccccn3)nc3ccccc3c2=O)c1,0.5 µg/mL
8,Cc1sc2ncnc(SCC(=O)N3CCCC(C(N)=O)C3)c2c1C (stereo not given),53.6 µg/mL
9,O=C(NC1CC2CCC(C1)N2Cc1ccccc1)c1cccc(F)c1 (stereo not given),> 50.8 µg/mL
10,O=C(/C=C/c1cccc([N+](=O)[O-])c1)N1CCN(c2ccccn2)CC1,3.1 µg/mL
11,O=C(Nc1ccc(Cl)cc1)c1ccco1,30.8 µg/mL
12,Cc1cc(F)ccc1S(=O)(=O)Nc1nc2ccccc2nc1Cl,> 52.8 µg/mL
13,COc1ccc(OCC(O)CNC(=O)c2sccc2Cl)cc1 (stereo not given),46 µg/mL
14,O=C(CCC(=O)OCC(=O)c1cccc([N+](=O)[O-])c1)NC1CCCCC1,> 54.4 µg/mL
15,CC(=O)c1ccc(N2CCC(C)CC2)c(F)c1,6 µg/mL
16,O=C(COc1ccc2ccc(=O)oc2c1)NC1CCCCC1,> 45.2 µg/mL
17,COc1c(F)c(F)cc2c(=O)c(C(=O)O)cn(C3CC3)c12,> 44.3 µg/mL
18,CCc1ccc(/C=C\C(=O)N2CCCC2)cc1,28.3 µg/mL
19,COc1ccc(NC(=O)C23CC4CC(CC(Cl)(C4)C2)C3)cc1S(=O)(=O)N1CCOCC1,3.3 µg/mL
20,CCN(CC(=O)NC1CCCC1)S(=O)(=O)c1ccc(F)cc1,> 49.3 µg/mL
21,C=CCN1C(=O)CSC1=Nc1ccc(NC(C)=O)cc1,42 µg/mL
22,O=C(O)CC1(CC(=O)NCc2ccc(-c3cccs3)cc2)CCCCC1,43.3 µg/mL
23,Cn1ccsc1=NC(=O)c1ccc(OC(F)(F)F)cc1,9.3 µg/mL
24,CCN(CC)C(=O)C1CCCN(Cc2nc(-c3cnccn3)no2)C1 (stereo not given),40.4 µg/mL
25,O=C(OCC(=O)N1CCc2ccccc2C1)c1cccs1,36.8 µg/mL

row,Structure (SMILES),solubility kinetic
1,CC1CCCCC1NC(=S)Nc1ccc(Cl)cc1Cl (stereo not given),1 µg/mL
2,Cc1ccc(NC(=O)CN2C(=O)NC3(CCCC3)C2=O)c(Cl)c1,> 50.4 µg/mL
3,O=C(NCc1ccncc1)C(=O)Nc1ccc2c(c1)OCO2,9.5 µg/mL
4,Cc1cc(NC(=O)/C=C\C(=O)O)c([N+](=O)[O-])cc1C,39.4 µg/mL
5,COc1ccc(OCCC(=O)Nc2ccc(S(N)(=O)=O)cc2)cc1,48.1 µg/mL
6,O=C(NC(=S)Nc1ccc(Br)cc1F)C1CCCCC1,0.9 µg/mL
7,CN1CCN(C(=O)c2cc(Cl)cc(Cl)c2)CC1,> 41 µg/mL
8,COc1ccc(-c2nc3c4ccccc4ccn3c2CN2CCCCC2)cc1,1.7 µg/mL
9,Brc1ccc(-c2csc(N3CCOCC3)n2)cc1,< 0.3 µg/mL
10,Cc1ccc(NC(=O)c2cnccn2)cc1C,31.7 µg/mL
11,CC(C)OC(=O)C(C)Nc1ccc(F)c(Cl)c1 (stereo not given),5.8 µg/mL
12,S=c1[nH]c2ccccc2[nH]1,> 22.5 µg/mL
13,O=C(Nc1ccc(CN2CCS(=O)(=O)CC2)cc1)c1ccccc1,31.4 µg/mL
14,CC(=O)Cn1cnc2scc(-c3ccc(C)c(C)c3)c2c1=O,43.7 µg/mL
15,CC(C)(C)c1ccc(/C=C(\C#N)C(=O)NCCN2CCOCC2)cc1,30.9 µg/mL
16,CCOC(=O)NC(=O)/C(C#N)=C/c1ccc(N(C)C)cc1,15.1 µg/mL
17,N#Cc1cnc(NCc2ccc(Cl)cc2Cl)nc1,0.5 µg/mL
18,CC(=O)N/C(=N/c1nc(C)cc(C)n1)Nc1cccc(C)c1C,4.9 µg/mL
19,Cc1cc(C)cc(Nc2ccc3nonc3c2[N+](=O)[O-])c1,1.1 µg/mL
20,Cc1cnc(C(=O)OCC(=O)N2C(C)CCCC2C)cn1 (stereo not given),> 43.7 µg/mL
21,O=C(NC1CCOc2ccccc21)C1CCCC1 (stereo not given),> 36.8 µg/mL
22,COc1ccc(NC(=O)CN(C)C(=O)CCC2CCCC2)cc1,45.5 µg/mL
23,O=C(Nc1ccc(Cl)cc1)Nc1ccon1,26.7 µg/mL

# Now from value to compound:
row,solubility kinetic,Structure (SMILES)
1,1.7 µg/mL,O=C(Cc1ccc(-c2ccccc2)cc1)Nc1ccccc1
2,< 0.3 µg/mL,COc1cc2ccccc2cc1C(=O)Nc1ccc(C)cn1
3,36.6 µg/mL,COCCNC(=O)c1ccccc1NC(=O)CSc1ccc(C)cc1
4,19.8 µg/mL,O=C(O)/C=C/C(=O)NCCCc1ccccc1
5,> 51.9 µg/mL,CCC(C(=O)NC(CC(=O)O)c1ccc(Cl)cc1)c1ccccc1 (stereo not given)
6,0.8 µg/mL,CC(C)(C)c1ccc(C(=O)NCCc2ccccc2)cc1
7,34.8 µg/mL,CCOc1ccc(CN(C)CC(=O)NCc2ccccc2)cc1
8,6.2 µg/mL,CC(CCc1ccccc1)NC(=O)CCc1cn(C)c2ccccc12 (stereo not given)
9,> 45.9 µg/mL,Cc1cccc(Cl)c1NC(=S)NCCc1ccccn1
10,> 52 µg/mL,CCCCC(Sc1nc(C)c(Cc2ccccc2)c(=O)[nH]1)C(=O)O (stereo not given)
11,4.2 µg/mL,Cc1cccc(-c2nc3ccccc3c(=O)[nH]2)c1
12,> 53 µg/mL,O=C(Cc1ccsc1)NCC(=O)Nc1ccccc1Br
13,10.9 µg/mL,O=C1OC(C(=O)Nc2ccccc2)Cc2ccccc21 (stereo not given)
14,1.9 µg/mL,COc1ccc(CCNC(=O)c2cc(=O)[nH]c3ccccc23)cc1
15,< 0.3 µg/mL,O=[N+]([O-])c1cccc(-c2cc3ccccc3[nH]2)c1
16,> 44 µg/mL,Cc1ccc(C(=O)Cn2c(C(=O)O)cc3ccccc32)cc1
17,> 48.9 µg/mL,O=C(CCn1c(=O)oc2ccccc21)Nc1ccc(C(=O)O)cc1
18,8.4 µg/mL,Cc1c(C(=O)N(C)Cc2ccccc2)oc2c(Cl)cccc12
19,> 42 µg/mL,O=C(NNC(=O)c1ccc2nc[nH]c2c1)c1ccccc1
20,15.6 µg/mL,Cc1ccccc1C(=O)NC(=S)Nc1ncccn1
21,4.9 µg/mL,O=C(CCNC(=O)c1ccccc1)Nc1nc2ccccc2s1
22,13.2 µg/mL,COC(=O)Cn1cc(C(=O)C(F)(F)F)c2ccccc21
23,43 µg/mL,COc1ccc(CCNC(=O)c2c(C)nc3ccccn23)cc1
24,4.8 µg/mL,Nc1cc(=O)[nH]c(SCC(=O)Nc2ccc(N3CCCCC3)cc2)n1

row,solubility kinetic,Structure (SMILES)
1,32.2 µg/mL,CN(C)CCC#CC1(O)c2ccccc2-c2ccccc21
2,> 43 µg/mL,COc1ccc(Cl)cc1C(=O)n1cnc2ccccc21
3,36.4 µg/mL,CC(C)c1ccccc1OCCNC(=O)c1cncc(Br)c1
4,37.4 µg/mL,COc1ccccc1Cn1c(CO)nc2ccccc21
5,> 51.5 µg/mL,CC1CCN(C(=O)COC(=O)c2nn(C)c(=O)c3ccccc23)CC1
6,> 51.5 µg/mL,CC(=O)Nc1ccc(NC(=O)CCSCCc2ccccn2)cc1
7,> 44.3 µg/mL,O=C1C(=O)c2ccccc2C(O)=C1c1cccc([N+](=O)[O-])c1
8,> 41.6 µg/mL,Cc1ccc(S(=O)(=O)c2c(C)cc(C)[nH]c2=O)cc1
9,1.1 µg/mL,O=S(=O)(NCc1ccccc1)c1ccc2ccccc2c1
10,40.7 µg/mL,CCN(CC)C(=O)Oc1ccc(Cl)c2cccnc12
11,29.6 µg/mL,CCOC(=O)C(Cc1c(F)cccc1Cl)c1ccno1 (stereo not given)
12,4.6 µg/mL,CC(C)NC(=O)c1cc(-c2cccs2)nc2ccccc12
13,1.9 µg/mL,CC(=O)c1cccc(NC(=O)c2ccc3ccccc3c2)c1
14,1.5 µg/mL,COc1ccc(CCn2c([S-])nc3ccccc3c2=O)cc1.[Na+]
15,35.6 µg/mL,Cc1cccc(NC(=O)NCc2cccnc2)c1C
16,6.2 µg/mL,O=C(NCCc1ccccc1)C1CCN(Cc2cccc3ccccc23)CC1
17,0.4 µg/mL,CNC(=O)NC(=O)Cn1cnc2sc(-c3ccccc3)cc2c1=O
18,7.2 µg/mL,Cc1cc(C)c(S(=O)(=O)c2ccccc2C(C)C)c(=O)[nH]1
19,> 52.6 µg/mL,CCC(C)NC(=O)Cn1nc(Cc2ccncc2)c2ccccc2c1=O (stereo not given)
20,53.8 µg/mL,CCOP(=O)(OCC)C(NC(=O)c1ccc(OC)cc1)c1ccccc1 (stereo not given)
21,> 42.8 µg/mL,CC(C)N(Cc1ccccc1)C(=S)Nc1cccnc1
22,> 56.9 µg/mL,CC1CCCN(C(=O)CN2C(=O)NC(C)(c3ccc4ccccc4c3)C2=O)C1 (stereo not given)
23,> 43.1 µg/mL,O=c1cc(C(F)(F)F)nc(SCc2cccnc2)[nH]1
